# Results published in patent US20080004296A1, “Organic Compounds” (priority 2004, published 2008).
# Tested on: tobacco-smoke-enhanced cough response to 0.3 M citric acid
# Assay: Citric acid-induced cough and Penh in tobacco smoke-exposed conscious guinea-pigs (plethysmograph)
# Assay type: in vivo, guinea-pig
# Conditions: 1 hour prior to citric acid challenge, mean±s.e. mean; for percentage inhibition of tobacco-smoke-enhanced cough: vs vehicle
# Protocol: Male Dunkin-Hartley guinea-pigs (350-550 g) are exposed to either air or tobacco smoke generated by four research cigarettes, (2R4F; Kentucky, USA) for a 3 second puff every 30 sec, for 2 days. At 24 hours after the last exposure conscious, unrestrained animals are placed in a plethysmograph chamber (Buxco, USA) and challenged with an aerosol of 0.3 M citric acid in 0.9% saline for 10 minutes. Cough and Penh AUC (measure of bronchoconstriction) are recorded during the 10 minute exposure and for a further 10 minutes after exposure using the method described in El-Hashim A. et al. Pulmonary Pharmacology & Therapeutics 17(1) (2004) pages 11-18.
# To evaluate the effects of 2-(2-Hydroxy-ethylcarbamoyloxymethyl)-5,7-dimethyl-3-(2-methylsulfamoyl-phenyl)-4-oxo-3,4-dihydro-quinazoline-6-carboxylic acid ethyl ester on the enhanced cough response, animals are dosed subcutaneously with the compound (0.3-10 mg/kg, n=3-10) or vehicle (3:1 PEG200:saline, n=10) at 1 hour prior to citric acid challenge. The percentage inhibition of the cough response following compound administration compared with vehicle administration in tobacco smoke-exposed animals is determined. Data are expressed as mean±s.e. mean and significance is defined as p<0.05 (ANOVA & Dunnett's multiple comparison test).
# [1] = 3 mg/kg subcutaneously, significant
compound,measurement,setting,value
"CCOC(=O)c1c(C)cc2nc(COC(=O)NCCO)n(-c3ccccc3S(=O)(=O)NC)c(=O)c2c1C [2-(2-Hydroxy-ethylcarbamoyloxy-methyl)-5,7-dimethyl-3-(2-methylsulfamoyl-phenyl)-4-oxo-3,4-dihydro-quinazoline-6-carboxylic acid ethyl ester]",inhibition of baseline Penh value (measure of bronchoconstriction),0.3 mg/kg subcutaneously,48±17%
same,percentage inhibition of tobacco-smoke-enhanced cough,0.3 mg/kg subcutaneously,18±14%
same,inhibition of baseline Penh value (measure of bronchoconstriction),1 mg/kg subcutaneously,55±19%
same,percentage inhibition of tobacco-smoke-enhanced cough,"1 mg/kg subcutaneously, significant",49±17%
same,inhibition of baseline Penh value (measure of bronchoconstriction),[1],77±10%
same,percentage inhibition of tobacco-smoke-enhanced cough,[1],80±13%
same,inhibition of baseline Penh value (measure of bronchoconstriction),10 mg/kg subcutaneously,86±2%
same,percentage inhibition of tobacco-smoke-enhanced cough,"10 mg/kg subcutaneously, significant",100±0%
